Source: patent US10408836B2 (priority 2013, dated 2019)

Assays:
NanA of S. pneumoniae = type: biochemical; details: pH 7
NA of influenza = type: biochemical; details: pH 7
[1] = molecular target: Recombinant N1 protein A/Anhui/01/05 (N1/05-S) (Influenza A virus, UniProt D0PQ82); assay: biochemical; details: pH 6, read-out: % of max NA act. + EDTA (pH)
[2] = molecular target: Recombinant N1 protein A/California/04/09 (N1pdm/09-R) (Influenza A virus (H1N1), UniProt C3W5S3); details: pH 6, 25000 µM
[3] = molecular target: S. pneumoniae ATCC 49619 (Strep 4) NanA (Streptococcus pneumoniae, UniProt P62575); details: pH 7
[4] = molecular target: B/Memphis/20/96 (Vict/96-R) neuraminidase (Influenza B virus, UniProt C7FPS7); details: pH 7, 25000 µM
[5] = molecular target: A/Brisbane/59/07-Like (H1N1/07-R) neuraminidase (Influenza A virus, UniProt D5F1R0); details: pH 6, 25000 µM
[6] = molecular target: B/Brisbane/60/08 (Vict/06-S) neuraminidase (Influenza B virus, UniProt C0LT34); assay: biochemical; details: pH 7, read-out: % of max NA act. + EDTA (pH)
[7] = molecular target: A/Texas/12/07 (H3N2/07-R) neuraminidase (Influenza A virus, UniProt D1FVK3)
[8] = molecular target: Recombinant N1 protein A/California/04/09 (N1pdm/09-S) (Influenza A virus (H1N1), UniProt C3W5S3); assay: biochemical; details: pH 6, read-out: % of max NA act. + EDTA (pH)
[9] = molecular target: S. pneumoniae ATCC 6305 (Strep 6) NanA (Streptococcus pneumoniae, UniProt P62575); details: pH 7
[10] = molecular target: B/Florida/04/06 (Yama/08-S) neuraminidase (Influenza B virus, UniProt J7JZU5); assay: biochemical; details: pH 7, read-out: % of max NA act. + EDTA (pH)
[11] = molecular target: A/Florida/21/08 (H1N1/08-R) neuraminidase (Influenza A virus, UniProt G3LYR2); details: pH 6, 25000 µM
[12] = molecular target: A/North Carolina/39/09 (H1N1pdm/09-R) neuraminidase (Influenza A virus, UniProt C3W6G3); details: pH 6, 25000 µM
[13] = molecular target: A/California/07/09 (H1N1pdm/09-S) neuraminidase (Influenza A virus, UniProt C3W6G3); assay: biochemical; details: pH 6, read-out: % of max NA act. + EDTA (pH)
[14] = molecular target: A/Brisbane/10/07-Like (H3N2/07-S) neuraminidase (Influenza A virus, UniProt A8W8R2); type: biochemical; details: pH 7, 25000 µM
[15] = molecular target: Parainfluenza virus Type 2 NA (Human parainfluenza 2 virus, UniProt P25465); details: pH 5
H3N2/07-R = type: binding, influenza A
influenza virus = type: binding

Molecule: O=S(=O)(O)CCCNC1CCCCC1 [CAPS, N-cyclohexyl-3-aminopropanesulfonic acid]
- NanA inhibition by sulfonic acid-containing buffer (NanA of S. pneumoniae): susceptibility to CHES and CAPS inhibition

Molecule: O=S(=O)(O)CCNC1CCCCC1 [CHES, N-cyclohexyl-2-aminoethanesulfonic acid]
- NA enzymatic activity of influenza in presence of buffer (NA of influenza): substantially resistant
- NanA activity of S. pneumoniae in presence of buffer (NanA of S. pneumoniae): severely reduced
- NanA inhibition by sulfonic acid-containing buffer (NanA of S. pneumoniae): susceptibility to CHES and CAPS inhibition

Molecule: O=C(O)CN(CCN(CC(=O)O)CC(=O)O)CC(=O)O [EDTA, ethylenediaminetetraacetic acid]
- activity at 25000 µM [1]: 43%
- % of max NA act. + EDTA (pH) [2]: 94%
- % of max NA act. + EDTA (pH) [3]: 108%
- % of max NA act. + EDTA (pH) [4]: 25%
- % of max NA act. + EDTA (pH) [5]: 54%
- activity at 25000 µM [6]: 92%
- % of max NA act. + EDTA (pH) ([7]; pH 7, 25000 µM): 61%
- activity at 25000 µM [8]: 94%
- % of max NA act. + EDTA (pH) [9]: 112%
- activity at 25000 µM [10]: 88%
- % of max NA act. + EDTA (pH) [11]: 36%
- % of max NA act. + EDTA (pH) [12]: 63%
- activity at 25000 µM [13]: 44%
- % of max NA act. + EDTA (pH) [14]: 50%
- % of max NA act. + EDTA (pH) [15]: 27%

Molecule: CC(=O)N[C@H]1[C@H]([C@H](O)[C@H](O)CO)OC(C(=O)O)=C[C@@H]1N=C(N)N [Zan, Zanamivir]
- IC50 [7]: 2.6 nM

Molecule: MBL: mannose-binding lectin, recombinant host protein used as capturing agent
- limit of detection: virus dilution (H3N2/07-R): 450 fold dilution
- limit of detection: virus dilution at which virus is captured (influenza virus): 270-450 fold dilution
- viral capture, ranking of receptors (influenza virus): best capturing factor among all mannose binding receptors

B1: Fetuin: highly sialylated protein isolated from bovine serum, used as capturing agent (protein, UniProt P12763 19-359, looked up)
Alpha-2-HS-glycoprotein: IPLDPVAGYKEPACDDPDTEQAALAAVDYINKHLPRGYKHTLNQIDSVKVWPRRPTGEVYDIEIDTLETTCHVLDPTPLANCSVRQQTQHAVEGDCDIHVLKQDGQFSVLFTKCDSSPDSAEDVRKLCPDCPLLAPLNDSRVVHAVEVALATFNAESNGSYLQLVEISRAQFVPLPVSVSVEFAVAATDCIAKEVVDPTKCNLLAEKQYGFCKGSVIQKALGGEDVRVTCTLFQTQPVIPQPQPDGAEAEAPSAVPDAAGPTPSAAGPPVASVVVGPSVVAVPLPLHRAHYDLRHTFSGVASVESSSGEAFHVGKTPIVGQPSIPGGPVRLCPGRIRYFKI
- limit of detection: virus dilution (H3N2/07-R): 30 fold dilution
- limit of detection: virus dilution at which virus is captured (influenza virus): 150-450 fold dilution
